Measurements published in patent US12129246B1, “Hydroquinazoline derivatives for the treatment of a disease or disorder” (Novartis AG, priority 2023, dated 2024).
Like-named read-outs stand apart in the source and are kept apart here.

What was measured:
[1] = target: T1, human NPR1 (Homo sapiens, UniProt P16066); assay: Cellular cGMP production assay, human NPR1 expressing CHO-K1 cells (CisBio HTRF); type: cell-based; settings: for AC50: cGMP production, 30 min at 37° C., 12-point dose-response from 30 μM; for Human NPR1 Amax (% of ANP): maximum cGMP production as percentage of the maximum cGMP produced with ANP
T1 construct: host or cells: CHO-K1
T1 sequence (P16066 33-1061): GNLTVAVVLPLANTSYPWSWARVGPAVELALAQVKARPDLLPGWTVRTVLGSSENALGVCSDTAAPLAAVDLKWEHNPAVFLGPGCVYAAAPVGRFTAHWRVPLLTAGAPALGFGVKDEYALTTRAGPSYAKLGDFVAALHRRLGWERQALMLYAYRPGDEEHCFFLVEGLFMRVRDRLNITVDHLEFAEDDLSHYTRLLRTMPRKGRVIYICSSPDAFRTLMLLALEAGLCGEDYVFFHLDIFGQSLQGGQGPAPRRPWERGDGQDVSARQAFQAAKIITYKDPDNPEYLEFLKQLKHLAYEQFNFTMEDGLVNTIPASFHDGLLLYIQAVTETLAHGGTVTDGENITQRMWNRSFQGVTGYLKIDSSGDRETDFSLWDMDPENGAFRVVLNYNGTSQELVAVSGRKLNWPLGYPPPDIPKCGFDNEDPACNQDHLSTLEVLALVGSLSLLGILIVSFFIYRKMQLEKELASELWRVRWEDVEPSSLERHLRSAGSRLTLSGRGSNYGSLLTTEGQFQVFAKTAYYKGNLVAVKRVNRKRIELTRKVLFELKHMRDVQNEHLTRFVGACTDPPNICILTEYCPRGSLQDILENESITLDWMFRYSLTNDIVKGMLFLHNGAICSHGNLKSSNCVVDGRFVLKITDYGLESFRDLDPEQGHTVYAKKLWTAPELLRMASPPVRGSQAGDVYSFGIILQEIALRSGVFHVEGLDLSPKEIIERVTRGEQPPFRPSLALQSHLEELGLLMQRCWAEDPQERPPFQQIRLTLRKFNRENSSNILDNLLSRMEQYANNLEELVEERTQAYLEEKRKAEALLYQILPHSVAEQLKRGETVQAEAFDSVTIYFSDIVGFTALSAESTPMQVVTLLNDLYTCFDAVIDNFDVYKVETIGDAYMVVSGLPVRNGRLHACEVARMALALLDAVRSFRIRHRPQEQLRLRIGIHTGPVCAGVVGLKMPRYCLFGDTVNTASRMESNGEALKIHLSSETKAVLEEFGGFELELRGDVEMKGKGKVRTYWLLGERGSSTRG
How it was run: (§1)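 Step 1: add buffer (PBS, 0.1% BSA, 1 mM IBMX) and compounds, 3-fold series from 30 μM top. Step 2: incubate 30 min, 37 °C. Step 3: lyse; HTRF reagents 1 h at RT.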

[2] = target: monkey NPR1 (Macaca fascicularis, UniProt A0A7N9DBT9); assay: Cellular cGMP production assay, monkey NPR1 expressing CHO-K1 cells (CisBio HTRF); type: cell-based; settings: for Monkey NPR1 Amax (% of ANP): maximum cGMP production as percentage of the maximum cGMP produced with ANP
How it was run: as §1

[3] = cGMP production, monkey NPR1 CHO-K1 cells, 30 min at 37° C., 12-point dose-response from 30 μM, read-out: Monkey NPR1 AC50

Sequence of monkey NPR1 (A0A7N9DBT9 entry or part of it): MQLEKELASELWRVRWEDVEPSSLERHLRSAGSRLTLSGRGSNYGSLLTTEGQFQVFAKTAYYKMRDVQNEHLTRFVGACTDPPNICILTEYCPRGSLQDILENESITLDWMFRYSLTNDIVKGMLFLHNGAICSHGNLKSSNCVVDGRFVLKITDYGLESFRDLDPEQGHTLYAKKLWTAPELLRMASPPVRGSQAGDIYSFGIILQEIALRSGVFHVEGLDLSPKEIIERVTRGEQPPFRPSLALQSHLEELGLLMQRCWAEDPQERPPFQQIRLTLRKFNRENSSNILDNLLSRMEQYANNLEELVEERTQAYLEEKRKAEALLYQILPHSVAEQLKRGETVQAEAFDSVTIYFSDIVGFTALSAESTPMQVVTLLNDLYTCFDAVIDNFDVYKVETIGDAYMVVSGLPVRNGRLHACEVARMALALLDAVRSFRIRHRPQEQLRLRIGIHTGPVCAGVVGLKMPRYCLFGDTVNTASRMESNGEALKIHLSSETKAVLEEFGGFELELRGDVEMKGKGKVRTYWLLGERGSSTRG

| SMILES | AC50 [1] [nM] | Human NPR1 Amax (% of ANP) [1] | AC50 [2] [nM] | Monkey NPR1 Amax (% of ANP) ([2]; monkey NPR1 CHO-K1 cells) | AC50 [2, 3] [nM] |
| --- | --- | --- | --- | --- | --- |
| CC[C@H]([C@H]1CC[C@H](C(=O)O)CC1)N(C)c1nc2c(c(N[C@@H](CN3C4CCCC3CC4)c3cnn(C)c3)n1)C[C@H](c1ccccc1F)CC2 [Compound 62, (1R,4r)-4-((1R)-1-(((6R)-4-(((1R)-2-(8-azabicyclo[3.2.1]octan-8-yl)-1-(1-methyl-1H-pyrazol-4-yl)ethyl)amino)-6-(2-fluorophenyl)-5,6,7,8-tetrahydroquinazolin-2-yl)(methyl)amino)propyl)cyclohexane-1-carboxylic acid] | 207 | 94.244 % of ANP | 133 | 103.497 % of ANP |  |
| CC[C@@H](Nc1nc2c(c(N[C@@H](CN3C4CCCC3CC4)c3cnn(C)c3)n1)C[C@H](c1ccccc1)CC2)[C@H]1CC[C@H](C(=O)O)CC1 [Compound 60, (1R,4r)-4-((1R)-1-(((6R)-4-(((1R)-2-(8-azabicyclo[3.2.1]octan-8-yl)-1-(1-methyl-1H-pyrazol-4-yl)ethyl)amino)-6-phenyl-5,6,7,8-tetrahydroquinazolin-2-yl)amino)propyl)cyclohexane-1-carboxylic acid] | 205 | 93.233 % of ANP | 99 | 106.189 % of ANP |  |
| CC[C@H]([C@H]1CC[C@H](C(=O)O)CC1)N(C)c1nc2c(c(N[C@@H](CN3CCCC4(CCOC4)C3)c3cnn(CC)c3)n1)C[C@H](c1ccccc1)CC2 (stereo partly drawn) [Compound 162, (1R,4r)-4-((1R)-1-(((6R)-4-(((1R)-1-(1-ethyl-1H-pyrazol-4-yl)-2-(2-oxa-7-azaspiro[4.5]decan-7-yl)ethyl)amino)-6-phenyl-5,6,7,8-tetrahydroquinazolin-2-yl)(methyl)amino)propyl)cyclohexane-1-carboxylic acid] | 1700 | 83.721 % of ANP |  | 89.971 % of ANP | 1310 |
| CC[C@H]([C@H]1CC[C@H](C(=O)O)CC1)N(C)c1nc2c(c(N[C@@H](CN3CCC[C@H](CO)C3)c3cnn(C)c3)n1)C[C@H](c1ccccc1)CC2 [Compound 93, (1R,4r)-4-((R)-1-(((R)-4-(((R)-2-((S)-3-(hydroxymethyl)piperidin-1-yl)-1-(1-methyl-1H-pyrazol-4-yl)ethyl)amino)-6-phenyl-5,6,7,8-tetrahydroquinazolin-2-yl)(methyl)amino)propyl)cyclohexane-1-carboxylic acid] | 318 | 92.058 % of ANP |  | 91.105 % of ANP | 261 |
| CC[C@@H](Nc1nc2c(c(N[C@@H](CN3CCCC4(CCC4)C3)c3cnn(CC)c3)n1)C[C@H](c1ccccc1)CC2)[C@H]1CC[C@H](C(=O)O)CC1 [Compound 126, (1R,4r)-4-((R)-1-(((R)-4-(((R)-1-(1-ethyl-1H-pyrazol-4-yl)-2-(6-azaspiro[3.5]nonan-6-yl)ethyl)amino)-6-phenyl-5,6,7,8-tetrahydroquinazolin-2-yl)amino)propyl)cyclohexane-1-carboxylic acid] | 620 | 98.906 % of ANP |  | 102.477 % of ANP | 452 |
| CC[C@H]([C@H]1CC[C@H](C(=O)O)CC1)N(C)c1nc2c(c(N[C@@H](CN3C4CCCC3CCC4)c3cnn(C)c3)n1)C[C@H](c1ccccc1)CC2 [Compound 143, (1R,4r)-4-((R)-1-(((R)-4-(((R)-2-((1S,5S)-9-azabicyclo[3.3.1]nonan-9-yl)-1-(1-methyl-1H-pyrazol-4-yl)ethyl)amino)-6-phenyl-5,6,7,8-tetrahydroquinazolin-2-yl)(methyl)amino)propyl)cyclohexane-1-carboxylic acid] | 920 | 104.085 % of ANP | 694 | 100.784 % of ANP |  |
| CC[C@H]([C@H]1CC[C@H](C(=O)O)CC1)N(C)c1nc2c(c(N[C@@H](CN3CCCC(F)C3)c3cnn(C)c3)n1)C[C@H](c1ccccc1)CC2 (stereo partly drawn) [Compound 156, (1R,4r)-4-((1R)-1-(((6R)-4-(((1R)-2-(3-fluoropiperidin-1-yl)-1-(1-methyl-1H-pyrazol-4-yl)ethyl)amino)-6-phenyl-5,6,7,8-tetrahydroquinazolin-2-yl)(methyl)amino)propyl)cyclohexane-1-carboxylic acid] | 1300 | 93.013 % of ANP |  | 105.900 % of ANP | 1160 |
| CC[C@H]([C@H]1CC[C@H](C(=O)O)CC1)N(C)c1nc2c(c(N[C@@H](CN3C4CC5CC(C4)CC3C5)c3cnn(C)c3)n1)C[C@H](c1ccccc1)CC2 [Compound 98, (1R,4r)-4-((R)-1-(((R)-4-(((R)-2-((1R,3R,5R,7R)-2-azaadamantan-2-yl)-1-(1-methyl-1H-pyrazol-4-yl)ethyl)amino)-6-phenyl-5,6,7,8-tetrahydroquinazolin-2-yl)(methyl)amino)propyl)cyclohexane-1-carboxylic acid] | 346 | 100.756 % of ANP |  | 105.533 % of ANP | 179 |
| CC[C@@H](Nc1nc2c(c(N[C@@H](CN3CCC[C@H](C)C3)c3scnc3C)n1)C[C@H](c1ccccc1)CC2)[C@H]1CC[C@H](C(=O)O)CC1 [Compound 73, (1R,4r)-4-((R)-1-(((R)-4-(((S)-2-((S)-3-methylpiperidin-1-yl)-1-(4-methylthiazol-5-yl)ethyl)amino)-6-phenyl-5,6,7,8-tetrahydroquinazolin-2-yl)amino)propyl)cyclohexane-1-carboxylic acid] | 245 | 94.290 % of ANP |  | 99.527 % of ANP | 172 |
| CC[C@H](N(C)c1nc2c(c(N[C@@H](CN3C4CCCC3CC4)c3cnn(C)c3)n1)C[C@](C)(c1ccccc1)CC2)C12CC(C(=O)O)(C1)C2 [Compound 69, 3-((1S)-1-(((6R)-4-(((1R)-2-(8-azabicyclo[3.2.1]octan-8-yl)-1-(1-methyl-1H-pyrazol-4-yl)ethyl)amino)-6-methyl-6-phenyl-5,6,7,8-tetrahydroquinazolin-2-yl)(methyl)amino)propyl)bicyclo[1.1.1]pentane-1-carboxylic acid] | 234 | 98.634 % of ANP | 220 | 100.449 % of ANP |  |
| CC[C@@H](Nc1nc2c(c(N[C@@H](CN3C4CC5CC(C4)CC3C5)c3cnn(C)c3)n1)C[C@H](c1ccccc1)CC2)[C@H]1CC[C@H](C(=O)O)CC1 [Compound 71, (1R,4r)-4-((R)-1-(((R)-4-(((R)-2-((5R,7R)-2-azaadamantan-2-yl)-1-(1-methyl-1H-pyrazol-4-yl)ethyl)amino)-6-phenyl-5,6,7,8-tetrahydroquinazolin-2-yl)amino)propyl)cyclohexane-1-carboxylic acid] | 237 | 91.827 % of ANP |  | 121.791 % of ANP | 78 |
| CC[C@@H](Nc1nc2c(c(N[C@@H](CN3CCCCC3)c3cnn(C(C)C)c3)n1)C[C@H](c1ccccc1)CC2)[C@H]1CC[C@H](C(=O)O)CC1 [Compound 100, (1R,4r)-4-((R)-1-(((R)-4-(((R)-1-(1-isopropyl-1H-pyrazol-4-yl)-2-(piperidin-1-yl)ethyl)amino)-6-phenyl-5,6,7,8-tetrahydroquinazolin-2-yl)amino)propyl)cyclohexane-1-carboxylic acid] | 354 | 92.848 % of ANP |  | 105.588 % of ANP | 161 |
| C[C@H]1CCCN(C[C@H](Nc2nc(N(C)[C@H](C3CC3)[C@H]3CC[C@H](C(=O)O)CC3)nc3c2C[C@H](c2ccccc2)CC3)c2cnn(C)c2)C1 [Compound 120, (1R,4r)-4-((R)-cyclopropyl(methyl((R)-4-(((R)-1-(1-methyl-1H-pyrazol-4-yl)-2-((S)-3-methylpiperidin-1-yl)ethyl)amino)-6-phenyl-5,6,7,8-tetrahydroquinazolin-2-yl)amino)methyl)cyclohexane-1-carboxylic acid] | 553 | 96.905 % of ANP |  | 102.755 % of ANP | 427 |
